According to patent US9861593B2, “Method for treating or preventing dry eye disorders using alkylamino-polyhydroxyalkanes” (Dynamis Pharmaceuticals, Inc., priority 2008, dated 2018):

Test system: goblet cells
Assay: Goblet cell density in eye tissue of scopolamine-treated rats (dry eye model), PAS-stained thin sections, blinded grader ratings
Format: in vivo, Sprague-Dawley male rats
Procedure: Sprague-Dawley male rats (7 weeks old, average weight=444 g) were treated with subcutaneous (SC) scopolamine hydrobromide in normal saline (n=30, 25 mg/kg injected 3× per day) or nothing (n=4). Scopolamine treated animals received either (a) 50 mM meglumine in the drinking water (n=10), (b) a 3× daily eyemist containing 2% by weight of meglumine hydrochloride (n=10) or (c) a 3× daily eyemist of normal saline (n=10). Treatment was for 4.5 weeks. One animal receiving scopolamine and the meglumine eyemist died just prior to the end of the study, and the eye tissues were not analyzed. Animals were euthanized and the eye orbit and surrounding tissue from both eyes were removed and placed in formalin. Tissues were embedded in paraffin, thin sections prepared, and stained with periodic acid Schiff to more easily visualize the goblet cells.
Animals not treated with scopolamine or with scopolamine and a saline eyemist had the lowest levels of goblet cells. […] The difference in goblet cell density between the untreated animals and those treated with oral meglumine was significant for one grader (p=0.04) and approached significance for the other (p=0.07). The meglumine eye mist referred to in Table 1 was obtained from Piedmont Chemical Industries (High Point, N.C.).

SMILES: CNC[C@H](O)[C@@H](O)[C@H](O)[C@H](O)CO [oral meg, meglumine]
- extent of regions containing goblet cells (FIG. 1) (scopolamine-dosed rats, oral meglumine versus saline eyemist): more extensive regions containing goblet cells
- levels of goblet cells compared with the other groups (in words) (scopolamine-treated rats, 50 mM meglumine in the drinking water, 4.5 weeks): highest levels of goblet cells
